# Measured values reported in patent publication US20090123907A1 (priority 2004, published 2009).
# Tests used:
# [1] = test system: red blood cells; assay: Red blood cell integrity during storage at 4° C.; assay type: cell-based; set-up: MCV Day 20 / MCV Day 33: unit not given here; conditions: for RBC Day 1: whole blood; for MCV Day 20 / MCV Day 33: whole blood stored at 4° C.
# Experimental: (§1) In this experiment whole blood (an aliquot of which clotted within 10 minutes without anticoagulant) was modified by adding a number of different anticoagulant compositions. Sodium citrate was used as an anticoagulant at 0.65%, 0.75% and 0.9% by weight. These are all higher citrate levels than the usual 0.4% by weight. Amino acid citrates (lysine or arginine) were used at 0.65%, 0.75% and 0.9% by weight based on the weight of the citric acid. The amino acid counterion was used in sufficient quantity to adjust the pH as explained above.
# To judge red cell condition the blood was counted and various other measurements were taken initially and after 20 and 33 days of storage at 4° C. Apparent initial/differences in RBC counts are due to dilution caused by adding extra anticoagulant. Mean cell volume (MCV) is a red cell index that is a useful measure of red cell health. […] It is believed that a citrate level of at least about 1.0% by weight (i.e., more than two times the usual amount) is necessary to ensure against all activation of plasma proteins. […] On the other hand, amino acid citrates, which are very effective anticoagulants, are also effective at preventing red cell damage.
# [2] = test system: clot formation; assay: Clotting times (PT, PTT) of anticoagulated whole blood; assay type: biochemical
# Experimental: as §1
# [3] = Level of calcium measured in blood with citrate anticoagulants
# Text: Lysine citrate is compared to traditional sodium citrate. The various citrate levels are expressed as a weight percentage of citrate so that equivalent levels have the same amount of citrate. The same blood was used throughout so that all of the samples started with the same calcium concentration. Since citrate is an effective chelator of calcium one expects the measured level of calcium to decrease with increasing levels of citrate as more and more of the calcium is “tied up” by the citrate. There is an equilibrium between free measurable calcium and calcium associated with citrate molecules. As the concentration of citrate is increased, calcium levels are lowered as there is a higher and higher probability that a given calcium ion will be interacting with a citrate molecule. […] There are at least two different ways of interpreting phenomenon. It is possible that when lysine molecules interact with citrate molecules, the interaction somehow prevents the chelation of calcium. This would explain the higher calcium measurements because there would effectively be a lower level of citrate present. […] That too would explain the higher measured calcium level but does little to solve the remainder of the conundrum. […] Thus, another advantage of lysine citrate is enhanced patient safety and a simpler plasmapheresis set up since it will not longer be necessary to administer protective doses of calcium.
# [4] = test system: plasma proteins; assay: Protein resistance to 56° C. treatment; conditions: Na citrate 0.4%, lysine citrate 2.0%
# Text: (§2) […]. In many cases heat treatments have been used to reduce or eliminated infectious agents from blood products. A problem with such an approach has been heat induced changes in the antigenicity of certain blood components. […]. A continuation of this experiment was set up to check also long term room temperature stability. It is generally believed that resistance to heat is an indicator of room temperature stability. That is the justification for estimating long term stability of products by using “accelerated” stability tests based on storage at an elevated temperature. In the presented experiment it is important to note that different plasma sample were used for the two different anticoagulants because a single sample was not large enough to provide sufficient volume for all of the tests over the life of the extended experiment.
# [5] = test system: plasma proteins; assay: Protein resistance to room temperature aging; conditions: Na citrate 0.4%, lysine citrate 2%
# Text: as §2
# It was anticipated that protection against damage due to elevated temperature would also provide greater stability at room temperature. It will be appreciated that the need to rapidly freeze plasma to ensure stability and the need to freeze or refrigerate plasma for transport greatly complicates the use of plasma under situations of war or emergency or in developing countries where refrigeration may not be readily available. […] […]. […] […]. Although great effort is taken to ensure sterility of the plasma, any blood product procured by means of venipuncture may become contaminated by skin bacteria. […] […]. Those proteins that do lose activity decrease only slightly as compared to much more dramatic decreases in sodium citrate storage.
# [6] = Post 56° C. for five minutes, plasma
compound,measurement,setting,value
"O=C([O-])CC(O)(CC(=O)[O-])C(=O)[O-].[Na+].[Na+].[Na+] [Na Citrate, sodium citrate, reference compound]",RBC Day 1,[1]; anticoagulant 0.65 wgt %,5.43 10^6/μl
same,MCV Day 20,[1]; anticoagulant 0.65 wgt %,97.1
same,MCV Day 33,[1]; anticoagulant 0.65 wgt %,94.3
same,RBC Day 1,[1]; anticoagulant 0.75 wgt %,5.86 10^6/μl
same,MCV Day 20,[1]; anticoagulant 0.75 wgt %,98.7
same,MCV Day 33,[1]; anticoagulant 0.75 wgt %,103.2
same,RBC Day 1,[1]; anticoagulant 0.90 wgt %,6.07 10^6/μl
same,MCV Day 20,[1]; anticoagulant 0.90 wgt %,97.8
same,MCV Day 33,[1]; anticoagulant 0.90 wgt %,103.3
same,PT (4 hrs at RT),[2]; anticoagulant 0.65 wgt %,13.1 s
same,PTT (4 hrs at RT),[2]; anticoagulant 0.65 wgt %,28.7 s
same,PT (4 hrs at RT),[2]; anticoagulant 0.75 wgt %,14.1 s
same,PTT (4 hrs at RT),[2]; anticoagulant 0.75 wgt %,31.5 s
same,PT (4 hrs at RT),[2]; anticoagulant 0.90 wgt %,21.2 s
same,PTT (4 hrs at RT),[2]; anticoagulant 0.90 wgt %,35.0 s
same,Level of calcium measured,[3]; Citrate Level 0.01%,9.2 mg/dL
same,Level of calcium measured,[3]; Citrate Level 0.05%,8.7 mg/dL
same,Level of calcium measured,[3]; Citrate Level 0.1%,5.3 mg/dL
same,Level of calcium measured,[3]; Citrate Level 0.25%,2.5 mg/dL
same,Level of calcium measured,[3]; Citrate Level 0.5%,0.6 mg/dL
same,Level of calcium measured,[3]; Citrate Level 1%,0 mg/dL
same,Alk. Phos,[4]; [6],23 IU/.L
same,LDH,[4]; [6],84 IU/L
same,SGOT,[4]; [6],15 IU/L
same,SGPT,[4]; [6],21 IU/L
same,fIX,[4]; [6],67%
same,fV,[4]; [6],45%
same,fVIII,[4]; [6],56%
same,fibrinogen,[4]; [6],15 mg/dL
same,Alk. Phos,"[4]; before heating, fresh plasma",30 IU/.L
same,LDH,"[4]; before heating, fresh plasma",110 IU/L
same,SGOT,"[4]; before heating, fresh plasma",18 IU/L
same,SGPT,"[4]; before heating, fresh plasma",32 IU/L
same,fIX,"[4]; before heating, fresh plasma",104%
same,fV,"[4]; before heating, fresh plasma",98%
same,fVIII,"[4]; before heating, fresh plasma",109%
same,fibrinogen,"[4]; before heating, fresh plasma",206 mg/dL
same,Alk. Phos,[5]; 0 days at room temperature,30 IU/.L
same,LDH,[5]; 0 days at room temperature,110 IU/L
same,SGOT,[5]; 0 days at room temperature,18 IU/L
same,SGPT,[5]; 0 days at room temperature,32 IU/L
same,fIX,[5]; 0 days at room temperature,104%
same,fV,[5]; 0 days at room temperature,98%
same,fVIII,[5]; 0 days at room temperature,109%
same,fibrinogen,[5]; 0 days at room temperature,206 mg/dL
same,Alk. Phos,[5]; 7 days at room temperature,29 IU/.L
same,LDH,[5]; 7 days at room temperature,111 IU/L
same,SGOT,[5]; 7 days at room temperature,18 IU/L
same,SGPT,[5]; 7 days at room temperature,30 IU/L
same,fIX,[5]; 7 days at room temperature,107%
same,fV,[5]; 7 days at room temperature,102%
same,fVIII,[5]; 7 days at room temperature,100%
same,fibrinogen,[5]; 7 days at room temperature,181 mg/dL
same,Alk. Phos,[5]; 14 days at room temperature,31 IU/.L
same,LDH,[5]; 14 days at room temperature,108 IU/L
same,SGOT,[5]; 14 days at room temperature,15 IU/L
same,SGPT,[5]; 14 days at room temperature,26 IU/L
same,fIX,[5]; 14 days at room temperature,93%
same,fV,[5]; 14 days at room temperature,102%
same,fVIII,[5]; 14 days at room temperature,92%
same,fibrinogen,[5]; 14 days at room temperature,173 mg/dL
same,Alk. Phos,[5]; 21 days at room temperature,28 IU/.L
same,LDH,[5]; 21 days at room temperature,103 IU/L
same,SGOT,[5]; 21 days at room temperature,12 IU/L
same,SGPT,[5]; 21 days at room temperature,20 IU/L
same,fIX,[5]; 21 days at room temperature,56%
same,fV,[5]; 21 days at room temperature,44%
same,fVIII,[5]; 21 days at room temperature,78%
same,fibrinogen,[5]; 21 days at room temperature,167 mg/dL
"NCCCC[C@H](N)C(=O)O.O=C(O)CC(O)(CC(=O)O)C(=O)O [Lysine Citrate, lysine citrate]",RBC Day 1,[1]; anticoagulant 0.65 wgt %,5.37 10^6/μl
same,MCV Day 20,[1]; anticoagulant 0.65 wgt %,93.0
same,MCV Day 33,[1]; anticoagulant 0.65 wgt %,93.8
same,RBC Day 1,[1]; anticoagulant 0.75 wgt %,6.78 10^6/μl
same,MCV Day 20,[1]; anticoagulant 0.75 wgt %,92.7
same,MCV Day 33,[1]; anticoagulant 0.75 wgt %,92.7
same,RBC Day 1,[1]; anticoagulant 0.90 wgt %,5.82 10^6/μl
same,MCV Day 20,[1]; anticoagulant 0.90 wgt %,92.2
same,MCV Day 33,[1]; anticoagulant 0.90 wgt %,92.9
same,PT (4 hrs at RT),[2]; anticoagulant 0.65 wgt %,14.1 s
same,PTT (4 hrs at RT),[2]; anticoagulant 0.65 wgt %,33.8 s
same,PT (4 hrs at RT),[2]; anticoagulant 0.75 wgt %,16.6 s
same,PTT (4 hrs at RT),[2]; anticoagulant 0.75 wgt %,33.2 s
same,PT (4 hrs at RT),[2]; anticoagulant 0.90 wgt %,36.5 s
same,PTT (4 hrs at RT),[2]; anticoagulant 0.90 wgt %,44.4 s
same,Level of calcium measured,[3]; Citrate Level 0.01%,9.2 mg/dL
same,Level of calcium measured,[3]; Citrate Level 0.05%,9.1 mg/dL
same,Level of calcium measured,[3]; Citrate Level 0.1%,7.1 mg/dL
same,Level of calcium measured,[3]; Citrate Level 0.25%,4.8 mg/dL
same,Level of calcium measured,[3]; Citrate Level 0.5%,1.6 mg/dL
same,Level of calcium measured,[3]; Citrate Level 1%,0.4 mg/dL
same,Alk. Phos,[4]; [6],16 IU/.L
same,LDH,[4]; [6],91 IU/L
same,SGOT,[4]; [6],7 IU/L
same,SGPT,[4]; [6],17 IU/L
same,fIX,[4]; [6],79%
same,fV,[4]; [6],69%
same,fVIII,[4]; [6],88%
same,fibrinogen,[4]; [6],147 mg/dL
same,Alk. Phos,"[4]; before heating, fresh plasma",23 IU/.L
same,LDH,"[4]; before heating, fresh plasma",97 IU/L
same,SGOT,"[4]; before heating, fresh plasma",10 IU/L
same,SGPT,"[4]; before heating, fresh plasma",20 IU/L
same,fIX,"[4]; before heating, fresh plasma",99%
same,fV,"[4]; before heating, fresh plasma",97%
same,fVIII,"[4]; before heating, fresh plasma",102%
same,fibrinogen,"[4]; before heating, fresh plasma",198 mg/dL
same,Alk. Phos,[5]; 0 days at room temperature,23 IU/.L
same,LDH,[5]; 0 days at room temperature,97 IU/L
same,SGOT,[5]; 0 days at room temperature,10 IU/L
same,SGPT,[5]; 0 days at room temperature,20 IU/L
same,fIX,[5]; 0 days at room temperature,99%
same,fV,[5]; 0 days at room temperature,97%
same,fVIII,[5]; 0 days at room temperature,102%
same,fibrinogen,[5]; 0 days at room temperature,198 mg/dL
same,Alk. Phos,[5]; 7 days at room temperature,23 IU/.L
same,LDH,[5]; 7 days at room temperature,97 IU/L
same,SGOT,[5]; 7 days at room temperature,10 IU/L
same,SGPT,[5]; 7 days at room temperature,20 IU/L
same,fIX,[5]; 7 days at room temperature,100%
same,fV,[5]; 7 days at room temperature,95%
same,fVIII,[5]; 7 days at room temperature,100%
same,fibrinogen,[5]; 7 days at room temperature,198 mg/dL
same,Alk. Phos,[5]; 14 days at room temperature,22 IU/.L
same,LDH,[5]; 14 days at room temperature,98 IU/L
same,SGOT,[5]; 14 days at room temperature,11 IU/L
same,SGPT,[5]; 14 days at room temperature,20 IU/L
same,fIX,[5]; 14 days at room temperature,95%
same,fV,[5]; 14 days at room temperature,92%
same,fVIII,[5]; 14 days at room temperature,97%
same,fibrinogen,[5]; 14 days at room temperature,196 mg/dL
same,Alk. Phos,[5]; 21 days at room temperature,23 IU/.L
same,LDH,[5]; 21 days at room temperature,98 IU/L
same,SGOT,[5]; 21 days at room temperature,10 IU/L
same,SGPT,[5]; 21 days at room temperature,18 IU/L
same,fIX,[5]; 21 days at room temperature,89%
same,fV,[5]; 21 days at room temperature,88%
same,fVIII,[5]; 21 days at room temperature,96%
same,fibrinogen,[5]; 21 days at room temperature,196 mg/dL
